Source: ChEMBL document CHEMBL3885881, “DrugMatrix”

Species: Rattus norvegicus
Experiment: DrugMatrix - Regimen: Daily Repeat
Format: toxicity, organism-based, Sprague-Dawley
Parameters: regimen Daily Repeat, gender Male, age 6-8 weeks
Conditions: in vivo, iv, vehicle 100 % SALINE; for ABSOLUTE BASOPHIL / ABSOLUTE EOSINOPHIL / ABSOLUTE LYMPHOCYTE / ABSOLUTE MONOCYTE / ABSOLUTE SEGMENTED NEUTROPHIL / BASOPHIL / EOSINOPHIL / ERYTHROCYTE COUNT / HEMATOCRIT / HEMOGLOBIN / LEUKOCYTE COUNT / LYMPHOCYTE / MEAN CORPUSCULAR HEMOGLOBIN / MEAN CORPUSCULAR HEMOGLOBIN CONCENTRATION / MEAN CORPUSCULAR VOLUME / MONOCYTE / NEUTROPHIL / NUCLEATED RED BLOOD CELLS / PLATELET COUNT: tissue Blood; for ALANINE AMINOTRANSFERASE / ALBUMIN / ALKALINE PHOSPHATASE / ASPARTATE AMINOTRANSFERASE / BLOOD UREA NITROGEN / CARBON DIOXIDE / CHLORIDE / CHOLESTEROL / CREATINE PHOSPHOKINASE / CREATININE / GLUCOSE / LACTATE DEHYDROGENASE / LIPASE / PHOSPHORUS / POTASSIUM / SODIUM / TOTAL BILIRUBIN / TOTAL PROTEIN / URIC ACID: tissue Plasma
[1] = 3 mg/kg, 120 h, dose level Low, time 5 day
[2] = 54 mg/kg, 72 h, dose level High, time 3 day
[3] = 54 mg/kg, 120 h, dose level High, time 5 day

**Q.** What does the source list for `O=c1[nH]c(=O)n([C@H]2C[C@H](O)[C@@H](CO)O2)cc1F` [FLOXURIDINE]?
**A.** ABSOLUTE BASOPHIL [1]: 0 CELLS/uL; ABSOLUTE EOSINOPHIL [1]: 0 CELLS/uL; ABSOLUTE LYMPHOCYTE [1]: 11533 CELLS/uL; ABSOLUTE MONOCYTE [1]: 174 CELLS/uL; ABSOLUTE SEGMENTED NEUTROPHIL [1]: 693 CELLS/uL; BASOPHIL [1]: 0%; EOSINOPHIL [1]: 0%; ERYTHROCYTE COUNT [1]: 5.61 x10E6/uL; HEMATOCRIT [1]: 34.57%; HEMOGLOBIN [1]: 13.83 G/DL; LEUKOCYTE COUNT [1]: 12.4 x10E3/uL; LYMPHOCYTE [1]: 93%; MEAN CORPUSCULAR HEMOGLOBIN [1]: 24.7 pg; MEAN CORPUSCULAR HEMOGLOBIN CONCENTRATION [1]: 40.03 G/DL; MEAN CORPUSCULAR VOLUME [1]: 61.73 fL; MONOCYTE [1]: 1.33%; NEUTROPHIL [1]: 5.67%; NUCLEATED RED BLOOD CELLS [1]: 0 /100WBC; PLATELET COUNT [1]: 883.33 x10E3/uL; ALANINE AMINOTRANSFERASE [1]: 53.33 u/L; ALBUMIN [1]: 4.33 G/DL; ALKALINE PHOSPHATASE [1]: 392.33 u/L; ASPARTATE AMINOTRANSFERASE [1]: 95.67 u/L; BLOOD UREA NITROGEN [1]: 18.67 mg/dL; CARBON DIOXIDE [1]: 26.33 mmol/L; CHLORIDE [1]: 102 MEQ/L; CHOLESTEROL [1]: 64.67 mg/dL; CREATINE PHOSPHOKINASE [1]: 328 u/L; CREATININE [1]: 0.28 mg/dL; GLUCOSE [1]: 167.33 mg/dL; LACTATE DEHYDROGENASE [1]: 433.67 u/L; LIPASE [1]: 10.33 u/L; PHOSPHORUS [1]: 11.63 mg/dL; POTASSIUM [1]: 6.75 MEQ/L; SODIUM [1]: 142.7 MEQ/L; TOTAL BILIRUBIN [1]: 0.23 mg/dL; TOTAL PROTEIN [1]: 5.93 G/DL; URIC ACID [1]: 1.83 mg/dL; ABSOLUTE BASOPHIL [2]: 0 CELLS/uL; ABSOLUTE EOSINOPHIL [2]: 0 CELLS/uL; ABSOLUTE LYMPHOCYTE [2]: 10754.33 CELLS/uL; ABSOLUTE MONOCYTE [2]: 75.67 CELLS/uL; ABSOLUTE SEGMENTED NEUTROPHIL [2]: 703.33 CELLS/uL; BASOPHIL [2]: 0%; EOSINOPHIL [2]: 0%; ERYTHROCYTE COUNT [2]: 5.48 x10E6/uL; HEMATOCRIT [2]: 33.43%; HEMOGLOBIN [2]: 13.3 G/DL; LEUKOCYTE COUNT [2]: 11.53 x10E3/uL; LYMPHOCYTE [2]: 93.33%; MEAN CORPUSCULAR HEMOGLOBIN [2]: 24.33 pg; MEAN CORPUSCULAR HEMOGLOBIN CONCENTRATION [2]: 39.83 G/DL; MEAN CORPUSCULAR VOLUME [2]: 61.17 fL; MONOCYTE [2]: 0.67%; NEUTROPHIL [2]: 6%; NUCLEATED RED BLOOD CELLS [2]: 0 /100WBC; PLATELET COUNT [2]: 1073.67 x10E3/uL; ALANINE AMINOTRANSFERASE [2]: 48.33 u/L; ALBUMIN [2]: 4.13 G/DL; ALKALINE PHOSPHATASE [2]: 268 u/L; ASPARTATE AMINOTRANSFERASE [2]: 81.67 u/L; BLOOD UREA NITROGEN [2]: 19 mg/dL; CARBON DIOXIDE [2]: 28.67 mmol/L; CHLORIDE [2]: 103.33 MEQ/L; CHOLESTEROL [2]: 68.33 mg/dL; CREATINE PHOSPHOKINASE [2]: 307.67 u/L; CREATININE [2]: 0.18 mg/dL; GLUCOSE [2]: 150.67 mg/dL; LACTATE DEHYDROGENASE [2]: 152.33 u/L; LIPASE [2]: 10.33 u/L; PHOSPHORUS [2]: 9.83 mg/dL; POTASSIUM [2]: 5.66 MEQ/L; SODIUM [2]: 141.27 MEQ/L; TOTAL BILIRUBIN [2]: 0.2 mg/dL; TOTAL PROTEIN [2]: 5.67 G/DL; URIC ACID [2]: 1.2 mg/dL; ABSOLUTE BASOPHIL [3]: 0 CELLS/uL; ABSOLUTE EOSINOPHIL [3]: 0 CELLS/uL; ABSOLUTE LYMPHOCYTE [3]: 10553 CELLS/uL; ABSOLUTE MONOCYTE [3]: 101.33 CELLS/uL; ABSOLUTE SEGMENTED NEUTROPHIL [3]: 445.67 CELLS/uL; BASOPHIL [3]: 0%; EOSINOPHIL [3]: 0%; ERYTHROCYTE COUNT [3]: 4.83 x10E6/uL; HEMATOCRIT [3]: 31%; HEMOGLOBIN [3]: 12.7 G/DL; LEUKOCYTE COUNT [3]: 11.1 x10E3/uL; LYMPHOCYTE [3]: 95%; MEAN CORPUSCULAR HEMOGLOBIN [3]: 26.57 pg; MEAN CORPUSCULAR HEMOGLOBIN CONCENTRATION [3]: 41.07 G/DL; MEAN CORPUSCULAR VOLUME [3]: 64.57 fL; MONOCYTE [3]: 1%; NEUTROPHIL [3]: 4%; NUCLEATED RED BLOOD CELLS [3]: 0 /100WBC; PLATELET COUNT [3]: 1207.33 x10E3/uL; ALANINE AMINOTRANSFERASE [3]: 45 u/L; ALBUMIN [3]: 4.17 G/DL; ALKALINE PHOSPHATASE [3]: 347 u/L; ASPARTATE AMINOTRANSFERASE [3]: 84 u/L; BLOOD UREA NITROGEN [3]: 17.67 mg/dL; CARBON DIOXIDE [3]: 26.67 mmol/L; CHLORIDE [3]: 102.33 MEQ/L; CHOLESTEROL [3]: 52.67 mg/dL; CREATINE PHOSPHOKINASE [3]: 429.33 u/L; CREATININE [3]: 0.12 mg/dL; GLUCOSE [3]: 154 mg/dL; LACTATE DEHYDROGENASE [3]: 306 u/L; LIPASE [3]: 9.33 u/L; PHOSPHORUS [3]: 9.83 mg/dL; POTASSIUM [3]: 5.61 MEQ/L; SODIUM [3]: 142.1 MEQ/L; TOTAL BILIRUBIN [3]: 0.17 mg/dL; TOTAL PROTEIN [3]: 5.53 G/DL; URIC ACID [3]: 1.5 mg/dL
